Data from paper PMC6286365 (Scientific Reports, 2018).
Like-named read-outs stand apart in the source and are kept apart here.

Tests used:
nSMase2 [1] = conditions: cited from earlier work
[2] = cited from earlier work
[3] = cited from earlier work; remark: listed apart in the source
nSMase2 [4] = test system: nSMase2; set-up: method as in PMID 28377412; conditions: co-injection with IL-1β; cited from earlier work
human nSMase2 = molecular target: T1, human nSMase2 (Homo sapiens, UniProt Q9NY59); test: biochemical
T1 sequence (Q9NY59 1-655): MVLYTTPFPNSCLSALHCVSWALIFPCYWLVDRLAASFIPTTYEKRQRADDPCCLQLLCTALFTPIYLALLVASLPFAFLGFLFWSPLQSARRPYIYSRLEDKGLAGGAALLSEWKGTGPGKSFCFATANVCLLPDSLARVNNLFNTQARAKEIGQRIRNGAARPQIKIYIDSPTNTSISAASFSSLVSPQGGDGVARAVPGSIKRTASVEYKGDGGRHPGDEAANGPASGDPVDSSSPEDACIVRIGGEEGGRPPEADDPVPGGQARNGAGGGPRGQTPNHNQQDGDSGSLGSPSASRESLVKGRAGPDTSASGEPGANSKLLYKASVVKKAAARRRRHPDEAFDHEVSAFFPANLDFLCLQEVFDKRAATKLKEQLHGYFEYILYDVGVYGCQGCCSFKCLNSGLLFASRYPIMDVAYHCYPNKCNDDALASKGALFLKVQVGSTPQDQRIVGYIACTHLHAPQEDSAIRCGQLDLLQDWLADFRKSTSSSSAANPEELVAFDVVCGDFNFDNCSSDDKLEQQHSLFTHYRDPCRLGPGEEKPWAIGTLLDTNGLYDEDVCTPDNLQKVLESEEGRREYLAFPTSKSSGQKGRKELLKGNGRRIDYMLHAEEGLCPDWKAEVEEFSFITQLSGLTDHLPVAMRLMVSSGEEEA

Rat primary astrocytes = test: Astrocyte activation, GFAP immunofluorescence (+/-) serum deprivation; format: cell-based; conditions: 10 μM, 2 h
Procedure: (§1) Independent laboratories have shown that pharmacological and genetic inhibition of nSMase2 blocks EV secretion from glial cells. […] Two hours after treatment, EVs were isolated from the media and quantified by nanoparticle tracking analysis. […] Cells were fixed and immunofluorescence labeling for GFAP was performed.
(§2) Media was collected after 2 h incubation and centrifuged at 2700 × g for 15 min at 4 °C. Supernatant was collected and the number of extracellular vesicles (EVs) was quantified using ZetaView Nanoparticle Tracker. The mean concentration of EVs/mL (±SEM) was calculated from 4 replicate experiments. […] Astrocytes grown in complete medium were used as no treatment control. Cells were fixed and stained with anti-GFAP antibody (1:500, Sigma). Fluorescence intensity was measured using Image J. (C) Quantitation of fluorescence in (B). Bar graph represents background corrected mean fluorescence intensity measured from 100 astrocytes per condition. Error bars represent standard error of mean. One-way ANOVA followed by Tukey’s posthoc test was performed.

primary astrocytes = test: Inhibition of EV release from primary astrocytes (FBS withdrawal, nanoparticle tracking); format: cell-based, rat; conditions: 2 h treatment, dose range of concentrations
Procedure: as §1, §2
Potential inhibition of test compounds on EV release from primary astrocytes was carried out as previously described (Dickens et al., 2017). Briefly, rat primary astrocytes were seeded onto 6-well plates at a density of 20,000 cells/well. Twenty-four hours after seeding, astrocytes were washed with PBS and the medium changed to media without FBS. Absence of FBS mimics a trophic factor withdrawal stimulus causing EVs to be released from astrocytes via an nSMase2-dependent pathway. […] The supernatant was collected and the number of EVs quantified using ZetaView Nanoparticle Tracker (Particle Metrix GmBH, Meerbusch, Germany) and the corresponding ZetaVeiw software (8.03.04.01). Nanosphere size standard 100 nm (Thermo Scientific) was used to calibrate the instrument prior to sample readings. […] For each sample 1 mL of the supernatant was injected into the sample-carrier cell and the particle count measured at 5 positions, with 2 cycles of reading per position. […] Mean concentration of EVs/mL (±SEM) was calculated from 4 replicates.

GFAP-GFP mice = test: Striatal IL-1β brain inflammation model: GFP-labeled astrocyte-derived EVs in plasma; format: in vivo, mouse; conditions: 10 mg/kg IP 0.5 h before IL-1β, 2 h post IL-1β
Procedure: As we have previously shown[11],[18], striatal injection of IL-1β in mice expressing GFP-GFAP in astroglia triggers a release of GFP-labelled EVs that rapidly enter into plasma, resulting in cytokine upregulation in liver and peripheral immune cell migration into brain[11]. […] There were two groups of mice: the first group was sacrificed 2 h after IL-1β administration by heart puncture, and GFP-labeled circulating EVs were measured with liver cytokines. […] Counting of astrocyte-released EV (GFP+) from blood and liver cytokine analysis was conducted by single injection of DPTIP. Although release of EVs from astrocytes can be initiated immediately after intracranial injection of IL-1β, infiltration of neutrophils in brain parenchyma occurred 12h-24h after the IL-1β injection. […] Western analysis using the isolated exosomal fraction confirmed the presence of CD63 (transmembrane protein), TSG101 (cytosolic protein) and Flotilin-1 (lipid raft associated protein), commonly used EV markers[19],[20]. The GFP signal was an indication that these EVs originated in brain[11] while lack of mitofilin and α-actinin signals indicated the vesicles were not of mitochondrial[21] or cytoskeletal[22] origin respectively (Fig. 6B).
Compounds were given 0.5 h before IL-1β dosing. One group of mice was sacrificed 2 h after IL-1β administration to determine effects of the various treatments on extracellular vesicles (EVs) releases from brain and liver cytokine analysis. […] (C) Liver cytokine levels under different treatments as measured by qRT-PCR of RNA isolated from fresh frozen liver tissue. Samples were analyzed in triplicate. **p < 0.01 and *p < 0.05 compared to saline control; ^##p < 0.01 and ^#p < 0.05 compared to IL1-β group. (D) Neutrophil levels in brain as measured by immunohistochemistry using coronal brain sections and Ly6b antibody. (E) Quantitation of (D); **p < 0.01 compared to saline control; ^##p < 0.01 compared to IL1-β group. […]

O=c1[nH]c(=S)[nH]c(-c2ccccc2)c1Cc1c(O)ccc2ccccc12 [Cambinol]
in vivo pharmacokinetic profile [2]: poor in vivo pharmacokinetic profile
metabolic stability [3]: metabolically unstable

COc1ccc(S(=O)(=O)N(C(=O)C(C)C)c2ccc3oc(=O)sc3c2)cc1 [MLS000521532]
IC50 (human nSMase2): 10 µM

COc1ccc(NC2CCCN(C(=O)CCc3ccccc3F)C2)cc1 (centres unmarked) [MLS001002546]
IC50 (human nSMase2): 10 µM

COc1cc(O)c(C(=O)O)c(-c2cc(O)c(O)cc2C)c1 [altenusin]
effect on neutrophil infiltration into brain parenchyma (nSMase2 [4]): suppress neutrophil infiltration

COc1cc(OC)cc(-c2nc(-c3cccs3)c(-c3ccccc3)[nH]2)c1 [des-hydroxyl analog]
effect on GFAP levels without serum starvation (Rat primary astrocytes; no serum starvation): did not change GFAP levels
effect on astrocyte activation (GFAP) in response to serum starvation (Rat primary astrocytes; with serum deprivation): failed to prevent astrocyte activation
effect on EV release from primary astrocytes (primary astrocytes; listed as des hydroxyl inactive analog of DPTIP): did not inhibit EV release
effect on EV release from primary astrocytes (primary astrocytes; listed as inactive analog): no effect on EV release
effect on IL-1β-induced EV release (GFAP-GFP mice): no difference
effect on IL-1β-induced EV release (GFAP-GFP mice; listed as inactive analog): no statistically significant effect
